Patent US11958829B1, “3-(4,5-diphenyl-2-(pyridin-3-YL)-1H-imidazol-1-YL)-N,N-dimethylpopan-1-amine as an antimicrobial compound” (KING FAISAL UNIVERSITY, priority 2023, dated 2024)

Legend:
Candida albicans = assay: Anti-microbial screening, agar dilution; type: cell-based; details: after 10, 20, 40 and 60 minutes at all dilutions, 1:100, 1:200, 1:400, and 1:800
Experimental: (§1) The antibacterial properties of the present compound were studied by the method of agar dilution. Test solutions of the compound were prepared in a concentration of 1% using dimethylformamide as a solvent then they are diluted in physiological solution to obtain the final experimental dilutions 1:100, 1:200, 1:400, and 1:800. The effect of these substances were compared with furacillin in a controllable study. The testing microbes used were gram positive bacteria St. Aereus, gram negative bacteria E. Coli, Ps. aeruginosa and Candida albicans fungi were taken. The experiments used for this survey were meat-pentonlu agar (EPA) for cultivation of bacteria and Saburo environment for fungi. Each experiment used 1 ml of test solution on each plate 500 min. Add 2 drops of emulsified with microbes feel. All experimental samples were taken from the agar after 10, 20, 40, and 60 minutes in the environment on the basis of Patrk planted. Bacteria were cultivated at a temperature of 37° C. for 1 day and the mushroom was kept in a thermostat for […] at a temperature of 28° C. Then results were checked.

E. Coli = assay: Anti-microbial screening, agar dilution; type: cell-based; details: after 10, 20, 40 and 60 minutes at all dilutions, 1:100, 1:200, 1:400, and 1:800
Experimental: as §1

St. Aereus = assay: Anti-microbial screening, agar dilution; type: cell-based; details: after 10, 20, 40 and 60 minutes at all dilutions, 1:100, 1:200, 1:400, and 1:800
Experimental: as §1

Ps. Aeroqonaza = assay: Anti-microbial screening, agar dilution; type: cell-based, Ps. aeruginosa; details: after 10, 20, 40 and 60 minutes at all dilutions, 1:100, 1:200, 1:400, and 1:800
Experimental: as §1

CN(C)CCCn1c(-c2cccnc2)nc(-c2ccccc2)c1-c1ccccc1 [3-(4,5-Diphenyl-2-(pyridin-3-yl)-1H-imidazol-1-yl)-N,N-dimethylpropan-1-amine]
inhibition activity, Candida albicans (Candida albicans): highest inhibition activity
inhibition activity, E. Coli (E. Coli): highest inhibition activity
inhibition activity, St. Aereus (St. Aereus): highest inhibition activity
inhibition activity, Ps. aeruginosa (Ps. Aeroqonaza): highest inhibition activity
melting point: 145 to 147 °C
